The source of these data is ChEMBL document CHEMBL1140542, “Cryptadines A and B, novel C27N3-type pentacyclic alkaloids from Lycopodium cryptomerinum” (Bioorg Med Chem, 2007).

In the assay the target is T1, Acetylcholinesterase (Bos taurus, UniProt P23795).
T1 sequence (P23795 whole entry): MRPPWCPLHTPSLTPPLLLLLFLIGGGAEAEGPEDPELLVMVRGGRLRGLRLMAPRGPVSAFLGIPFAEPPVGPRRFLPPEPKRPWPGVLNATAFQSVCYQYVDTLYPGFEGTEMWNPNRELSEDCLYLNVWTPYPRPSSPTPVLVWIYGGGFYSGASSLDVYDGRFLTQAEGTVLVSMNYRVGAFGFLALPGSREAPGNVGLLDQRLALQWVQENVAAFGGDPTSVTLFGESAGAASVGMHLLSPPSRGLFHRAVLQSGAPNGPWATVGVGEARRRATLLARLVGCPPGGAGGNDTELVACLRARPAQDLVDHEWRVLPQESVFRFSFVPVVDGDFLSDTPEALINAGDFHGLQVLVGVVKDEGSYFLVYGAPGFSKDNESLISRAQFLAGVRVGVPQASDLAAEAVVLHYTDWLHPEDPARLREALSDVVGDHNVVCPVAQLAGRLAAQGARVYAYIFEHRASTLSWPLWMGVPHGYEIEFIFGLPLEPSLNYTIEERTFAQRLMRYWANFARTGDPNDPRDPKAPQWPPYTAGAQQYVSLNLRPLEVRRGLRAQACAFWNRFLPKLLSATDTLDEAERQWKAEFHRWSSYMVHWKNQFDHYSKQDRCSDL
Kind of assay: Inhibition of bovine acetylcholinesterase.

pIC50: −log10 of the molar value.

Consider `CC(=O)N1CCCC2=C(C[C@H]3CCC[C@H](CC4=C5CCCN(C)[C@H]5C[C@H](C)C4)N3)C[C@H](C)C[C@@H]21` [CRYPTADINE B], for which the pIC50 is 4.73.

For `CC(=O)N1CCCC2=C(C[C@H]3CCC[C@H](CC4=C5CCCN(C)[C@H]5C[C@@H](C)C4)N3)C[C@H](C)C[C@@H]21` [CRYPTADINE A], the pIC50 was 3.97.
